Results from patent US9615577B2, “Herbicidally active cyclic dione compounds, or derivatives therefor, substituted by a phenyl which has an alkynyl-containing substituent” (Syngenta Limited, priority 2012, dated 2017).

Legend:
Assay type in all cases: in vivo
[1] = system: Abutilon theophasti Medik. (ABUTH); assay: Test 1A glasshouse assay for herbicidal activity, pre-emergence; details: 312 h, 250 g/ha, evaluated after 13 days, read-out: percentage phytotoxicity ABUTH
Method: (§1) Seeds of a variety of test species were sown in standard soil in pots. After cultivation for one day (pre-emergence) or after 8 days cultivation (post-emergence) under controlled conditions in a glasshouse (at 24/16° C., day/night; 14 hours light; 65% humidity), the plants were sprayed with an aqueous spray solution derived from the formulation of the technical active ingredient in acetone/I water (50:50) solution containing 0.5% Tween 20 (polyoxyethelyene sorbitan monolaurate, CAS RN 9005-64-5). The test plants were then grown in a glasshouse under controlled conditions in a glasshouse (at 24/16° C., day/night; 14 hours light; 65% humidity) and watered twice daily. After 13 days for pre and post-emergence, the test was evaluated visually for percentage phytotoxicity to the plant (where 100=total damage to plant; 0=no damage to plant).
(§2) Alopecurus myosuroides (ALOMY), Setaria faberi (SETFA), Echinochloa crus-galli (ECHCG), Solanum nigrum (SOLNI), Amaranthus retroflexus (AMARE), Ipomoea hederacea (IPOHE), and Abutilon theophasti Medik. (ABUTH, common English name “velvetleaf”). Of these, Alopecurus myosuroides (ALOMY), Setaria faberi (SETFA), and Echinochloa crus-galli (ECHCG) are grassy monocotyledonous weeds.

[2] = system: Alopecurus myosuroides (ALOMY); assay: as above; details: 312 h, 250 g/ha, evaluated after 13 days, read-out: percentage phytotoxicity ALOMY
Method: as §1, §2

[3] = system: Amaranthus retroflexus (AMARE); assay: as above; details: 312 h, 250 g/ha, evaluated after 13 days, read-out: percentage phytotoxicity AMARE
Method: as §1, §2

[4] = system: Echinochloa crus-galli (ECHCG); assay: as above; details: 312 h, 250 g/ha, evaluated after 13 days, read-out: percentage phytotoxicity ECHCG
Method: as §1, §2

Setaria faberi (SETFA) [5] = assay: as above; details: 312 h, 250 g/ha, evaluated after 13 days, read-out: percentage phytotoxicity SETFA
Method: as §1, §2

[6] = system: Abutilon theophasti Medik. (ABUTH); assay: Test 1A glasshouse assay for herbicidal activity, post-emergence; details: 312 h, evaluated after 13 days, read-out: percentage phytotoxicity ABUTH
Method: as §1, §2

[7] = system: Alopecurus myosuroides (ALOMY); assay: as above; details: 312 h, evaluated after 13 days, read-out: percentage phytotoxicity ALOMY
Method: as §1, §2

[8] = system: Amaranthus retroflexus (AMARE); assay: as above; details: 312 h, evaluated after 13 days, read-out: percentage phytotoxicity AMARE
Method: as §1, §2

[9] = system: Echinochloa crus-galli (ECHCG); assay: as above; details: 312 h, evaluated after 13 days, read-out: percentage phytotoxicity ECHCG
Method: as §1, §2

Setaria faberi (SETFA) [10] = assay: as above; details: 312 h, evaluated after 13 days, read-out: percentage phytotoxicity SETFA
Method: as §1, §2

[11] = system: Alopecurus myosuroides (ALOMY); assay: Biological Example 2 comparative herbicidal data, post-emergence glasshouse screen; details: 312 h, read-out: Post-emergence herbicidal activities (percentage phytotoxicity) ALOMY; for pest or weed control at 15.625 g/ha: 15.625 g/ha application rate; for pest or weed control at 62.5 g/ha: 62.5 g/ha application rate
Method: as §1
(§3) Comparative herbicidal data is given below for certain exemplified compounds with 4-(prop-1-ynyl)-2,6-dimethylphenyl or 4-(chloroethynyl)-2,6-dimethylphenyl headgroups, compared to the corresponding compounds with either 4-ethynyl-2,6-dimethylphenyl or 2,4,6-trimethylphenyl headgroups, as follows. Comparative herbicidal data is also given below for certain exemplified compounds with 4-(prop-1-ynyl)-2-chloro-6-methoxyphenyl headgroups, compared to the corresponding compounds with 4-ethynyl-2-chloro-6-methoxyphenyl or 4-(but-1-ynyl)-2-chloro-6-methoxyphenyl or 4-methyl-2-chloro-6-methoxyphenyl or 2-chloro-6-methoxyphenyl headgroups, as follows.
(§4) Except where specified otherwise, the glasshouse screen for herbicidal activity is substantially the same as that presented in Biological Example 1A (Test 1A) hereinabove. The weed abbreviations are as defined in Biological Example 1A.

[12] = system: Echinochloa crus-galli (ECHCG); assay: as above; details: 312 h, read-out: Post-emergence herbicidal activities (percentage phytotoxicity) ECHCG; for pest or weed control at 15.625 g/ha: 15.625 g/ha application rate; for pest or weed control at 62.5 g/ha: 62.5 g/ha application rate
Method: as §1, §3, §4

Setaria faberi (SETFA) [13] = assay: as above; details: 312 h, read-out: Post-emergence herbicidal activities (percentage phytotoxicity) SETFA; for pest or weed control at 15.625 g/ha: 15.625 g/ha application rate; for pest or weed control at 62.5 g/ha: 62.5 g/ha application rate
Method: as §1, §3, §4

Structure (SMILES)	pest or weed control at 250 g/ha [1] [%]	pest or weed control at 250 g/ha [2] [%]	pest or weed control at 250 g/ha [3] [%]	pest or weed control at 250 g/ha [4] [%]	pest or weed control at 250 g/ha (Setaria faberi (SETFA) [5]) [%]	pest or weed control at 250 g/ha [6] [%]	pest or weed control at 250 g/ha [7] [%]	pest or weed control at 250 g/ha [8] [%]	pest or weed control at 250 g/ha [9] [%]	pest or weed control at 250 g/ha (Setaria faberi (SETFA) [10]) [%]	pest or weed control at 30 g/ha [6] [%]	pest or weed control at 30 g/ha [7] [%]	pest or weed control at 30 g/ha [8] [%]	pest or weed control at 30 g/ha [9] [%]	pest or weed control at 30 g/ha (Setaria faberi (SETFA) [10]) [%]	also measured
CC#Cc1ccc(C2C(=O)C3CCC(C3)C2=O)c(Cl)c1 (centres unmarked) [Compound A-11]	50	100	70	100	80	80	100	30	100	100	–	–	–	–	–	–
CC#Cc1cc(Cl)c(C2C(=O)C3CCC(C3)C2=O)c(OCC(F)(F)F)c1 (centres unmarked) [Compound A-19, 3-[2-chloro-4-prop-1-ynyl-6-(2,2,2-trifluoroethoxyl)phenyl]bicyclo[3.2.1]octane-2,4-dione]	0	40	0	60	60	0	70	0	100	90	–	–	–	–	–	–
CC#Cc1cc(Cl)c(C2C(=O)CC(CCSC)CC2=O)c(OC)c1 (centres unmarked) [Compound A-23, 2-(2-Chloro-6-methoxy-4-prop-1-ynyl-phenyl)-5-(2-methylsulfanylethyl)cyclohexane-1,3-dione]	30	90	70	100	90	70	90	20	100	100	30	60	10	100	100	–
CC#Cc1cc(Cl)c(C2=C(OC(=O)c3ccc(Cl)cc3)CC(C3CCOCC3)CC2=O)c(OC)c1 (centres unmarked) [Compound P-3]	80	100	100	100	100	80	90	80	100	100	70	100	80	100	100	pest or weed control at 8 g/ha ([6]; 8 g/ha): 20%; pest or weed control at 8 g/ha ([7]; 8 g/ha): 90%; pest or weed control at 8 g/ha ([8]; 8 g/ha): 20%; pest or weed control at 8 g/ha ([9]; 8 g/ha): 100%; pest or weed control at 8 g/ha (Setaria faberi (SETFA) [10]; 8 g/ha): 100%
CC#Cc1cc(C)c(C2=C(OS(C)(=O)=O)CC(CC3CCOCC3)CC2=O)c(C)c1 (centres unmarked) [Compound P-4]	10	80	20	100	80	0	80	0	80	80	–	–	–	–	–	–
CC#Cc1cc(C)c(C2=C(OC(=O)C(C)(C)C)C3CCC(C3)C2=O)c(C)c1 (centres unmarked) [Compound P-5]	0	100	0	100	100	70	90	10	100	90	0	60	0	80	70	–
CC#Cc1cc(Cl)c(C2=C(OC(=O)SCC)C3CCC(C3)C2=O)c(OCC(F)(F)F)c1 (centres unmarked) [Compound P-6, [3-[2-Chloro-4-prop-1-ynyl-6-(2,2,2-trifluoroethoxyl)phenyl]-4-oxo-2-bicyclo[3.2.1]oct-2-enyl]ethylsulfanylformate]	0	10	20	–	10	0	50	20	80	50	–	–	–	–	–	–
CC#Cc1cc(Cl)c(C2=C(OC(=O)C(C)(C)C)C3CCC(C3)C2=O)c(OC)c1 (centres unmarked) [Compound P-7]	0	100	0	100	100	70	100	0	100	100	10	90	0	100	90	–
C#Cc1ccc(C2C(=O)C(C)(C)OC(C)(C)C2=O)c(C)c1 [Compound X-1, reference compound]	–	–	–	–	–	–	–	–	–	–	–	–	–	–	–	pest or weed control at 15.625 g/ha [11]: 20%; pest or weed control at 62.5 g/ha [11]: 10%; pest or weed control at 15.625 g/ha [12]: 0%; pest or weed control at 62.5 g/ha [12]: 0%; pest or weed control at 15.625 g/ha (Setaria faberi (SETFA) [13]): 0%; pest or weed control at 62.5 g/ha (Setaria faberi (SETFA) [13]): 30%
C#Cc1cc(C)c(C2C(=O)C3CCC(C3)C2=O)c(C)c1 (centres unmarked) [Compound X-2, reference compound]	–	–	–	–	–	–	–	–	–	–	–	–	–	–	–	pest or weed control at 15.625 g/ha [11]: 0%; pest or weed control at 62.5 g/ha [11]: 10%; pest or weed control at 15.625 g/ha [12]: 0%; pest or weed control at 62.5 g/ha [12]: 70%; pest or weed control at 15.625 g/ha (Setaria faberi (SETFA) [13]): 50%; pest or weed control at 62.5 g/ha (Setaria faberi (SETFA) [13]): 60%
C#Cc1cc(C)c(C2C(=O)CC(CC3CCOCC3)CC2=O)c(C)c1 (centres unmarked) [Compound X-3, reference compound]	–	–	–	–	–	–	–	–	–	–	–	–	–	–	–	pest or weed control at 15.625 g/ha [11]: 30%; pest or weed control at 62.5 g/ha [11]: 60%; pest or weed control at 15.625 g/ha [12]: 20%; pest or weed control at 62.5 g/ha [12]: 50%; pest or weed control at 15.625 g/ha (Setaria faberi (SETFA) [13]): 60%; pest or weed control at 62.5 g/ha (Setaria faberi (SETFA) [13]): 70%
